# Experimental data: a melting point compilation (Tetko et al.; mined from patent text by program, amines drawn as free bases though some values may be those of a salt)
row,Compound,melting point [°C]
1,Cc1c(C)c(N2CCN(c3ccc(F)cc3)CC2)c(C)c2c1OC(C)(C)C2,175 to 177
2,CCCCCCCCCCCC(=O)N[C@@H](C)C(=O)N[C@H](CCC(=O)O)C(N)=O,163
3,CC(COc1ccccc1)NCC(O)COc1cccc(O)c1 (centres undefined),124 to 127
4,CCCc1ccc2nc(SCC)c(S(N)(=O)=O)n2n1,176 to 177
5,Cc1ccc(=O)n(C2c3cc(C#N)ccc3OC(C)(C)C2O)n1 (centres undefined),> 257
6,CC(C)[C@H](COc1ccccc1)Nc1nc(Cl)nc2c1ncn2[C@@H]1O[C@H](CO)[C@@H](O)[C@H]1O,95 to 100
7,CC1(CC(=O)O)CCCC1=O (centres undefined),70 to 72
8,CCCCCCCCCCCC#Cc1cnccc1C=C(C(=O)O)C(=O)O,175 to 177
9,Cn1cc(C(=O)Nc2ccccc2-c2ccc(Cl)c(Cl)c2)c(C(F)(F)F)n1,131 to 133
10,Cc1nc2ccc(NCCCN3CCC(OC(c4ccccc4)c4ccccc4)CC3)nn2n1,119 to 120
11,COc1cc(Nc2c(C#N)cnc3cc(-c4ccc(N5CCOCC5)cc4)ccc23)c(Cl)cc1Cl,162 to 164
12,CC(=O)NNc1nc(C(F)(F)F)nc(-c2ccc(S(C)(=O)=O)cc2)c1-c1ccccc1,265 to 268
13,CCCCCCOc1cc2c(cc1/C(C)=C/C=C/C(C)=C/C(=O)O)C(C)(C)CCCS2(=O)=O,164 to 165
14,CC12CCC(O)CC1CCC1C2CCC2(C)C(c3ccnnc3)CCC12O (centres undefined),210 to 213
15,CCOC(=O)CN1CCc2cc3c(cc2CC1)OCO3,89 to 90
16,CC(C)(C)OC(=O)N[C@H](Cc1ccc(CC(F)(F)C(F)(F)F)cc1)[C@@H](O)c1cccc(Cl)c1 (racemic),156 to 157
17,CC1CN(c2cc3ccccc3c(=O)[nH]2)CCN1 (centres undefined),164 to 167
18,"COc1csc(Cc2c(C(C)C)cc(C(C)C)c(C(C)O)c2-c2ccc(F)cc2)c1 (single isomer, unassigned; (+))",140 to 142
19,Cc1nc(-c2c(C#N)nn(-c3c(Cl)cc(C(F)(F)F)cc3Cl)c2N)cs1,226 to 228
20,COC(=O)c1ccccc1C=Cc1ccc(Br)cc1,104 to 106
21,O=C(O)c1cccc(-c2ccc(F)c3cc(Cc4cccc(C(F)(F)F)c4)oc23)c1,172 to 173

# Further lines, results first:
row,melting point [°C],Compound
1,77,C=CCOCCCCOc1ccc2c(c1)Cc1cc(C(C)=O)ccc1-2
2,176,Cc1cc2ncc(-c3cccc(C(F)(F)F)c3)c(N)n2n1
3,274 to 276,CN1C(=O)C(=Cc2cc(O)c(O)c([N+](=O)[O-])c2)SC1=S
4,70 to 73,COC1CCCNC(=O)C1 (centres undefined)
5,193 to 194,COCc1c(C(=O)c2ccccc2)ncc2[nH]c3ccc(Oc4ccc(Br)cn4)cc3c12
6,138,CCOC(=O)CC1CC2C(CCC3(C)C(=O)CCC23)c2ccc(O)cc21 (centres undefined)
7,186 to 188,O=C1N(c2ccccc2)c2ccccc2C1(Cc1ccncc1)Cc1ccncc1
8,46 to 48,CC(C)(Cc1cccc(C(=O)c2cccc(CC(C)(C)C(=O)O)c2)c1)C(=O)O
9,179 to 181,COc1ccc(Nc2nc(-c3ccc4scnc4c3)cn3ccnc23)cc1OC
10,137 to 140,CC(C)(C)OC(=O)C(C(=O)c1ccc(NS(C)(=O)=O)cc1Cl)C(=O)C1CC1 (centres undefined)
11,195 to 197,CCOC(=O)c1cc2c(OC)ccnc2[nH]1
12,150 to 153,CCOc1cc(=O)oc2cc(CBr)ccc12
13,100 to 102,N#Cc1cc(F)c(-c2ncnc(C(F)F)c2Cl)cc1[N+](=O)[O-]
14,146 to 153,CS(=O)(=O)N[C@@H]1CCCC[C@H]1Nc1nc(Nc2ccc3c(c2)CCC(=O)CC3)ncc1Cl
15,64 to 68.5,COC(=O)C(Sc1ccccc1)c1ccc(Oc2ccc(Cl)cc2)cc1 (centres undefined)
16,78 to 79,O=C(NCCCCn1cncn1)c1ccco1
17,80.5 to 82,CC(C)(C)C(=O)C(=[N+]=[N-])S(=O)(=O)C1CCCCC1
18,184 to 186,O=C(c1[nH]c2ccc(F)cc2c1Sc1ccccc1)N1CCCC1
